Literature values as cited in patent US20150313903A1, “METHODS OF TREATING COGNITIVE IMPAIRMENT ASSOCIATED WITH NEURODEGENERATIVE DISORDERS” (Ovid Therapeutics Inc., priority 2014, published 2015).
Like-named read-outs stand apart in the source and are kept apart here.

Experiments:
[1] = in vivo
[2] = in vivo; remark: listed apart in the source
[3] = set-up: key: *: shown to have a beneficial effect in ALS; conditions: in vivo
[4] = molecular target: serotonin-S2 receptor (Rattus norvegicus, UniProt P14842); conditions: in vivo; dose as low as
serotonin-S2 receptor, sequence (P14842 whole entry): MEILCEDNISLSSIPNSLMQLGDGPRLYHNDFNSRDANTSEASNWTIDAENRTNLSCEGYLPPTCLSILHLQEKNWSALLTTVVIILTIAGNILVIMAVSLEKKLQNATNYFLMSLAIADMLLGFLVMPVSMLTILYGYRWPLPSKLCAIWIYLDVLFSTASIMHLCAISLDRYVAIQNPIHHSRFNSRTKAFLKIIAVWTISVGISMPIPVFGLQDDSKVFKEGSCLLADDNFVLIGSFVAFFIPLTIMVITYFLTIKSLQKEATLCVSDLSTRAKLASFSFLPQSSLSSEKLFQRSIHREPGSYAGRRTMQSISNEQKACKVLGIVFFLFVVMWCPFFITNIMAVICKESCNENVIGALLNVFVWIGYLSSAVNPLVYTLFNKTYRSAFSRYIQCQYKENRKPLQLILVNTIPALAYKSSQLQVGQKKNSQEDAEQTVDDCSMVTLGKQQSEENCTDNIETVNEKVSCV

[5] = not given; remark: listed apart in the source
[6] = MPTP model of parkinsonism in mice
[7] = generalized anxiety disorders, versus control subjects
[8] = in vivo; remark: listed apart in the source
[9] = alcoholics
[10] = classical conditioning model
[11] = tested on: BDNF; conditions: in vivo
[12] = molecular target: T1, dopamine transporter (Homo sapiens, UniProt Q01959); conditions: within the prefrontal cortex (PFC)
T1 construct: host or cells: prefrontal cortex
T1 sequence (Q01959 whole entry): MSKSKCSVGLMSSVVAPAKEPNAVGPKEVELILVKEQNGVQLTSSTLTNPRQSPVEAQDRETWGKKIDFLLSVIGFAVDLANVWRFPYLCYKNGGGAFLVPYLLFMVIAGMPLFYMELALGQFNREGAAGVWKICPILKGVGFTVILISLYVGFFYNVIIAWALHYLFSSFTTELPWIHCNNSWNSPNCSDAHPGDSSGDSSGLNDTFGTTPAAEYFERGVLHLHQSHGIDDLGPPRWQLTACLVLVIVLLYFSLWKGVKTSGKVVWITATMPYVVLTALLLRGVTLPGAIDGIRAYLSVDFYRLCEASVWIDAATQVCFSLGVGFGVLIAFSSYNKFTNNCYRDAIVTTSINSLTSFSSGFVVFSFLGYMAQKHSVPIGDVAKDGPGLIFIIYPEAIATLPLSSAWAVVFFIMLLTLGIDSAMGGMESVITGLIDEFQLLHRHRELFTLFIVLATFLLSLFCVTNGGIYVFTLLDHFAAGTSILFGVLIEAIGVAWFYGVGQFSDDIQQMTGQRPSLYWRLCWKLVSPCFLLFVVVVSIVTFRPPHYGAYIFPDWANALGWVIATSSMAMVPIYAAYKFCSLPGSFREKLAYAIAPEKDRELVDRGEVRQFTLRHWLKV

[13] = direct injection into the hippocampus, rats
[14] = subjects taking ritanserin
[15] = several trials, monotherapy
[16] = acute dose 10 mg, healthy volunteers
[17] = Parkinson's patients, later studies
[18] = open pilot trial, parkinsonian patients

Which results are given for `CC(C)COc1ccc(CNC(=O)N(Cc2ccc(F)cc2)C2CCN(C)CC2)cc1` [Pimavanserin]?
efficacy in psychosis associated with Parkinson's disease [1]: effective; reversing PCP-induced deficits [2]: no activity

For `Nc1nc2ccc(OC(F)(F)F)cc2s1` [Riluzole, 2-amino-6-(trifluoromethoxy) benzothiazole], which “beneficial effect in ALS (asterisk mark)” value [3] is on record?
The value was “*Riluzole”.

Which results are given for `Cc1nc2sccn2c(=O)c1CCN1CCC(=C(c2ccc(F)cc2)c2ccc(F)cc2)CC1` [ritanserin, 6-[2-[4-[bis(4-fluorophenyl)methylene]-1-piperidinyl]ethyl]-7-methyl-5H-thiazolo[3,2-a]pyrimidin-5-one]?
dose giving 50% serotonin-S2 receptor occupation [4]: 0.08 m/kg; effect on REM sleep [16]: decreased REM sleep; effect on Stage 2 sleep [16]: decreased Stage 2 sleep; effect on slow-wave sleep [16]: increased slow-wave sleep; increase in SWS during the night, on average (administered just before bedtime): about 52 minutes; psychomotor sedation during the day (after morning administration): no psychomotor sedation; tolerance to the sleep-enhancing effects (after repeated administration): no tolerance; SWS duration (at clinical doses): can double SWS duration; average increase in slow-wave sleep (dose 1 mg): 53 min; average increase in slow-wave sleep (dose 3 mg): 82 min; average increase in slow-wave sleep (dose 10 mg): 101 min; average increase in slow-wave sleep (dose 30 mg): 136.5 min; increase in SWS during the night, on average (morning administration): about 94 minutes; bradykinesia [5, 17]: reduced bradykinesia; gait [5, 17]: improved gait; L-Dopa-induced dyskinesia [5, 18]: reduced L-Dopa-induced dyskinesia; tremor, rigidity, or akinesia [5, 18]: no significant modifying; motor deficit [6]: reduced motor deficit; self-rating of treated subjects [7]: calmer, more relaxed, and more energetic than control subjects; blocking the physiological effects of LSD [8]: some activity; outcome of Phase 3 trial for alcohol abstinence [9]: failed a Phase 3 trial; effect on learning [10]: impair learning; expression of brain (hippocampal) BDNF [11]: increases the expression; inhibition of the dopamine transporter [12]: selectively inhibit the dopamine transporter; effect on learning [13]: inhibit learning; weight gain [14]: Weight gain is not observed; efficacy in schizophrenia [15]: did show efficacy
